# The source made the active and inactive calls. No cut-off for these calls is given here.
# What was measured:
# [1] = Cytotoxicity against human RD cells assessed as reduction in cell viability after 3 days by MTT assay; format: cell-based
# [2] = Cytotoxicity against human Hep2 cells assessed as reduction in cell viability after 3 days by MTT assay; format: cell-based; conditions: HEp-2 cells
# [3] = system: Enterovirus A71; experiment: Antiviral activity against EV71 Xiangyang-Hubei-09 infected in human RD cells assessed as inhibition of virus-induced cytopathic effect by MTT dye based assay; format: functional, organism-based
# [4] = system: Coxsackievirus B3; experiment: Antiviral activity against Coxsackievirus B3 (strain Nancy) infected in human HEP2 cells assessed as inhibition of virus-induced cytopathic effect by MTT dye based assay; format: functional, organism-based
# [5] = system: Enterovirus A71; experiment: Antiviral activity against EV71 Xiangyang-Hubei-09 infected in human RD cells assessed as inhibition of virus-induced cytopathic effect at 16 ug/ml preincubated with RD cells for 2 hrs followed by washing with PBS and subsequent viral infection measured after 48 hrs by MTT assay; format: functional, organism-based
# [6] = system: Enterovirus A71; experiment: Antiviral activity against EV71 Xiangyang-Hubei-09 infected in human RD cells assessed as reduction in progeny viral yield at 16 ug/ml treated 1 hr post viral infection measured after 48 hrs; format: functional
# [7] = Selectivity index, ratio of CC50 for human HEP2 cells to EC50 for Coxsackievirus B3 (strain Nancy) infected in human HEP cells; format: toxicity, cell-based; conditions: HEp-2 cells, read-out: Ratio CC50/EC50
# [8] = system: Enterovirus A71; experiment: Antiviral activity against EV71 Xiangyang-Hubei-09 infected in human RD cells assessed as inhibition of viral adsorption at 16 ug/ml treated simultaneously with viral infection for 2 hrs followed by washing with PBS measured after 48 hrs; format: functional, organism-based
# [9] = system: Coxsackievirus B3; experiment: Antiviral activity against Coxsackievirus B3 (strain Nancy) infected in human HEP2 cells assessed as inhibition of virus-induced cytopathic effect at 16 ug/ml after 48 hrs by MTT dye based assay; format: functional, organism-based
# [10] = system: Enterovirus A71; experiment: Antiviral activity against EV71 Xiangyang-Hubei-09 infected in human RD cells assessed as inhibition of virus-induced cytopathic effect at 16 ug/ml treated 1 hr post viral infection measured after 48 hrs by MTT dye based assay relative to control; format: functional; conditions: for inhibition at 16 µg/mL: Enterovirus A, Xiangyang-Hubei-09, RD
# [11] = system: Enterovirus A71; experiment: Antiviral activity against EV71 Xiangyang-Hubei-09 infected in human RD cells assessed as alteration in viral cell morphology at 16 ug/ml after 48 hrs; format: functional, organism-based
# [12] = system: Enterovirus A71; experiment: Antiviral activity against EV71 Xiangyang-Hubei-09 infected in human RD cells at 16 ug/ml preincubated with RD cells for 2 hrs followed by washing with PBS and subsequent viral infection measured after 48 hrs; format: functional, organism-based
# [13] = Selectivity index, ratio of CC50 for human RD cells to EC50 for EV71 Xiangyang-Hubei-09 infected in human RD cells; format: toxicity, cell-based; conditions: read-out: Ratio CC50/EC50
# [14] = Enterovirus A, Xiangyang-Hubei-09, RD, read-out: EC50
# [15] = Enterovirus B, Nancy, HEp-2, read-out: EC50
Structure (SMILES),CC50 at 72 h [1] [µg/mL],CC50 at 72 h [2] [µg/mL],selectivity ratio [7],"EC50 [3, 14] [µg/mL]",selectivity ratio [13],"EC50 [4, 15] [µg/mL]",further results
Clc1ccc([C@@H](CCn2cncn2)Cc2ccccc2)c(Cl)c1,6.5,11.1,–,–,–,–,–
CC[C@@H](CCn1cncn1)c1ccc(F)cc1,91.6,90.3,–,–,–,–,EC50 ([3]; rd): Not Active; EC50 [4]: Not Active
CCCC[C@H](CCn1cncn1)c1ccc(OC)cc1,28.3,34.5,–,–,–,–,–
C[C@H](CCn1cncn1)Cc1ccccc1,153,144,12.6,6.2,24.7,11.4,inhibition [5]: inactive; log(activity) [6]: 4.7; inhibition [8]: Active; inhibition [9]: Active; inhibition at 16 µg/mL [10]: 72%; inhibition [11]: Active; inhibition [12]: inactive; inhibition [3]: Dose-dependent effect; inhibition [4]: Dose-dependent effect
Cc1ccc([C@H](CCn2cncn2)Cc2ccccc2)cc1,117,152,11.2,9.2,12.7,13.6,–
NC(=O)c1ncn([C@@H]2O[C@H](CO)[C@@H](O)[C@H]2O)n1 [RIBAVIRIN],486,572,13.3,32.5,15,42.9,inhibition [9]: Active; inhibition [10]: Active
CCC[C@H](CCn1cncn1)c1ccc(OC)cc1,59.3,59.6,–,–,–,–,–
CC[C@H](CCn1cncn1)c1ccc(C)cc1,85.2,75.2,6.2,6.6,12.9,12.1,–
CCC[C@H](CCn1cncn1)c1ccccc1,63.1,58.4,–,–,–,–,–
"Cc1ccc(C(CCn2cncn2)C2CCCCC2)cc1 (single isomer, unassigned)",57.9,57.3,4.9,10.6,5.5,11.7,–
CC[C@@H](CCn1cncn1)c1ccc(Cl)cc1,55.3,55.1,5.2,5.4,10.2,10.5,–
CCCC[C@H](CCn1cncn1)c1ccccc1,48.3,50.2,4.8,12.1,4,10.4,–
Clc1ccc([C@@H](CCn2cncn2)Cc2ccccc2)cc1,24.4,25.9,–,–,–,–,–
Cc1ccc([C@@H](CCn2cncn2)Cc2ccccc2)cc1,109,83.3,–,–,–,–,–
CC[C@H](CCn1cncn1)c1ccc(Cl)cc1,57,50.6,3.7,–,–,13.5,EC50 ([3]; rd): Not Active
CCCC[C@H](CCn1cncn1)c1ccc(F)cc1,35.2,38.5,–,–,–,–,–
CC[C@H](CCn1cncn1)c1ccc(F)cc1,110,103,–,–,–,–,EC50 ([3]; rd): Not Active; EC50 [4]: Not Active
CCCC[C@@H](CCn1cncn1)c1ccc(C)cc1,56.5,60.7,–,–,–,–,EC50 ([3]; rd): Not Active; EC50 [4]: Not Active
CCCC[C@@H](CCn1cncn1)c1ccc(OC)cc1,39.4,31.6,–,–,–,–,–
"c1ccc(C(CCn2cncn2)C2CCCCC2)cc1 (single isomer, unassigned; 39)",11.8,24.8,4.9,–,–,5.1,EC50 ([3]; rd): Not Active
c1ccc(C[C@@H](CCn2cncn2)c2ccccc2)cc1,56,55.9,–,–,–,–,–
C[C@@H](CCn1cncn1)Cc1ccccc1,114,131,12.7,9.1,12.6,10.3,inhibition [9]: Active; inhibition [10]: Active; inhibition [11]: Active; inhibition [3]: Dose-dependent effect; inhibition [4]: Dose-dependent effect
CCCC[C@H](CCn1cncn1)c1ccc(C)cc1,26.5,23.7,–,–,–,–,–

Structure (SMILES),CC50 at 72 h [1] [µg/mL],CC50 at 72 h [2] [µg/mL],selectivity ratio [7],"EC50 [3, 14] [µg/mL]",selectivity ratio [13],"EC50 [4, 15] [µg/mL]",further results
CCC[C@@H](CCn1cncn1)c1ccc(Cl)cc1,40.8,36.6,–,–,–,–,–
CCCC[C@H](CCn1cncn1)c1ccc(Cl)cc1,20.3,20.2,–,–,–,–,–
Cc1ccc(C[C@H](CCn2cncn2)c2ccccc2)cc1,37.8,38.8,5.2,–,–,7.4,EC50 ([3]; rd): Not Active
CCCC[C@@H](CCn1cncn1)c1ccc(F)cc1,34.1,36,–,–,–,–,–
CC[C@@H](CCn1cncn1)c1ccccc1,91.2,89.9,–,–,–,–,–
CCCC[C@@H](CCn1cncn1)c1ccc(Cl)cc1,18.7,17,–,–,–,–,–
CCC[C@H](CCn1cncn1)c1ccc(F)cc1,38.4,39.3,–,–,–,–,–
CC[C@H](CCn1cncn1)c1ccccc1,99.8,97.7,–,–,–,–,–
CCCC[C@@H](CCn1cncn1)c1ccccc1,47.5,40.8,–,–,–,–,EC50 ([3]; rd): Not Active; EC50 [4]: Not Active
CC[C@H](CCn1cncn1)c1ccc(OC)cc1,118,153,10.2,15.9,7.4,15.1,–
"c1ccc(C(CCn2cncn2)C2CCCCC2)cc1 (single isomer, unassigned; 40)",9.2,21.8,4.6,–,–,4.7,EC50 ([3]; rd): Not Active
CCC[C@@H](CCn1cncn1)c1ccc(C)cc1,74.1,71.3,6.9,10.9,6.8,10.3,–
COc1ccc([C@H](CCn2cncn2)Cc2ccccc2)cc1,66,60.3,4.9,12.2,5.4,12.2,–
CCC[C@H](CCn1cncn1)c1ccc(C)cc1,47.2,45.7,–,–,–,–,–
CCCC[C@H](CCn1cncn1)c1ccc(Cl)cc1Cl,10.1,13.4,–,–,–,–,–
CC[C@@H](CCn1cncn1)c1ccc(OC)cc1,115,146,14.5,5.3,21.7,10.1,inhibition [9]: Active; inhibition at 16 µg/mL [10]: 88.1%; inhibition [11]: Active; inhibition [3]: Dose-dependent effect; inhibition [4]: Dose-dependent effect
CCC[C@@H](CCn1cncn1)c1ccc(F)cc1,56.9,55.3,–,–,–,–,–
c1ccc(C[C@H](CCn2cncn2)c2ccccc2)cc1,55.4,60.9,4.1,12.7,4.4,14.9,–
CCCC[C@@H](CCn1cncn1)c1ccc(Cl)cc1Cl,1.9,6.5,–,–,–,–,–
CC[C@@H](CCn1cncn1)c1ccc(C)cc1,79.4,69.9,11.7,5.4,14.7,6,inhibition [5]: inactive; log(activity) [6]: 4.7; inhibition [8]: Active; inhibition [9]: Active; inhibition at 16 µg/mL [10]: 81%; inhibition [11]: Active; inhibition [12]: inactive; inhibition [3]: Dose-dependent effect; inhibition [4]: Dose-dependent effect
Clc1ccc([C@H](CCn2cncn2)Cc2ccccc2)cc1,21.7,25.7,–,–,–,–,–
Clc1ccc([C@H](CCn2cncn2)Cc2ccccc2)c(Cl)c1,1.9,4.9,–,–,–,–,–
